Measurements taken from patent US6147076A, “Analogues of N-acetylardeemin, method of preparation and uses thereof” (priority 1996, dated 2000).
Values joined by “and” are separate entries in the source; they are usually repeats but may differ in a detail not shown here. Equal entries are not always repeated. Where two headings read alike, the source gives them in different places. Numbered stars: 1 amine (or outer) side, 2 acyl side, 3 side chain; on linkers, the order of the positions; unused ones are H or OH. Bridge positions count the residues as written; N and C are the ends. Square brackets hold non-standard residues; d marks the D form. Peptide text beside a SMILES is read from it. I, II: the chains in the order shown. Actinocin(9to1) = Cc1c2oc3c(C)ccc(C(=O)[*:1])c3nc-2c(C(=O)[*:2])c(N)c1=O; NMeV = CN[C@H](C(=O)O)C(C)C; Sar = CNCC(=O)O

Tests used:
[1] = tested on: DC-3F/ADII cells
[2] = tested on: CCRF-CEM cells
[3] = tested on: CCRF-CEM cells; assay: Cytotoxicity / growth inhibition of CCRF-CEM leukemic cells
[4] = tested on: CCRF-CEM/VLB-100 cells; assay: Intracellular accumulation of [3H]vinblastine in CCRF-CEM/VLB-100 cells; assay type: cell-based, human; settings: 30 μM
Procedure: (§1) *Cells were preloaded with [^3 H]
(§2) times (or without wash) with 100 ml cold medium to remove extracellular
(§3) with or without a reverse prenyl compound or an MDRreversing agent. Cells
(§4) were then separated from radioactive medium by microfuge oillayer method.
(§5) Extracellular space counts carried down # by cells (^3 HInulin space
(§6) were subtracted from the total radioactive counts.

[5] = tested on: DC-3F hamster lung cells; settings: dc-3f cells
[6] = tested on: DC-3F hamster lung cells; assay: Cytotoxicity toward DC-3F hamster lung cells
[7] = tested on: CCRF-CEM/VBL100 cells
[8] = tested on: CCRF-CEM/VM-1 cells; assay: Cytotoxicity toward VM-26-resistant CCRF-CEM/VM-1 cells (mutated Topo II gene); assay type: cell-based, human
[9] = tested on: CCRF-CEM cells; assay: Intracellular accumulation of [3H]vinblastine in CCRF-CEM cells; assay type: cell-based, human; settings: 30 μM
Procedure: as §1, §2, §3, §4, §5, §6

[10] = tested on: CCRF-CEM/VBL100 cells; assay: cells; settings: Homo sapiens
[11] = tested on: DC-3F/ADX cells; assay: Cytotoxicity toward DC-3F/ADX cells; assay type: cell-based, hamster; settings: for IC50: DC3F/ADX, DC-3F/ADX; for (C)/(A): IC50 ratio DC-3F/ADX to DC-3F, * collaterally sensitive
[12] = tested on: DC-3F/ADII cells; assay: cells; settings: Mesocricetus auratus, DC3F
[13] = Homo sapiens, Table 5A, single determinations
[14] = Homo sapiens, read-out: IC50, mean ± spread, Table 5A, CCRF-CEM, mean
[15] = Table 5A, single determinations
[16] = read-out: IC50, mean ± spread, Table 5A, CCRF-CEM/VLB, mean
[17] = Homo sapiens, Table 6, CCRF-CEM
[18] = Table 5A, CCRF-CEM/VLB, * collaterally sensitive vs parent
[19] = Homo sapiens, CCRF-CEM, Table 5A, CCRF-CEM/VM-1, read-out: IC50
[20] = Homo sapiens, read-out: IC50 of reversing agent, Table 6B, CCRF-CEM
[21] = read-out: IC50 of reversing agent, Table 6B, CCRF-CEM/VBL
[22] = Homo sapiens, CCRF-CEM, Table 6B, CCRF-CEM/VM-1, read-out: IC50 of reversing agent
[23] = IC50 ratio DC-3F/ADII to DC-3F, * collaterally sensitive
[24] = Mesocricetus auratus, DC3F, read-out: IC50 (A), mean ± spread, mean of the determinations
[25] = Mesocricetus auratus, DC3F, read-out: IC50 (A), single determinations
[26] = read-out: IC50 (A), single determinations

Compound | [3H]vinblastine accumulation ([4]; washed) | [3H]vinblastine accumulation ([4]; without wash) | [3H]vinblastine accumulation ([9]; washed) | [3H]vinblastine accumulation ([9]; without wash) | IC50 [3, 13] | IC50 [3, 14] | IC50 [10, 16] | IC50 [3, 17] | IC50 [10, 18] | IC50 ([10]; Table 6, CCRF-CEM/VBL) | IC50 [8, 19] | other results
C=CCC12CC3c4nc5ccccc5c(=O)n4C(C)C(=O)N3C1N(C(C)=O)c1ccccc12 (stereo not shown) [5-N-Ac"Allyl" ardeemin, "Allyl" 5-N-acetylardeemin] | 6.18 fmole/10^3 cells | 27.21 fmole/10^3 cells | 28.88 fmole/10^3 cells | 33.35 fmole/10^3 cells | – | – | – | – | – | – | – | IC50 ([1]; dc-3f/adii cells): 5.21 µM; IC90 ([1]; dc-3f/adii cells): 34.7 µM; IC50 [2]: 53.3 µM; IC90 [2]: 888 µM; IC50 ([3]; Homo sapiens, human leukemic CCRF-CEM cells): 53.3 µM; IC80 [5]: 17.4 µM; IC90 [5]: 56.2 µM; IC50 ([6]; Mesocricetus auratus, DC3F, relative cytotoxicity, DC-3F): 17.4 µM; IC50 ([7]; ccrf-cem/vbl100 cells): 35.8 µM; IC90 ([7]; ccrf-cem/vbl100 cells): 81.1 µM; IC50 ([8]; ccrf-cem/vm-1 cells): 45 µM; IC90 ([8]; ccrf-cem/vm-1 cells): 916 µM
C=CC(C)(C)C12CC3C(=O)NCC(=O)N3C1N(C(C)=O)c1ccccc12 (stereo not shown) [5N-Ac-8-desMe-DKP, 5N-acetyl diketopiperazine] | – | – | – | – | 21.4 µM | 22.1 ± 0.7 µM | 19.9 ± 13 µM | – | – | – | – | IC50 [3, 15]: 22.7 µM; IC50 ([8]; Homo sapiens, CCRF-CEM): 35.8 µM
C=CC(C)(C)C12CC3C(=O)N(C(C)=O)C(C)C(=O)N3C1N(C(C)=O)c1ccccc12 (stereo not shown) [Imide Di-Ac-DKP Amide 14(D), imide diacetate diketopiperazine] | 4.01 fmole/10^3 cells | 15.92 fmole/10^3 cells | 28.36 fmole/10^3 cells | 34.54 fmole/10^3 cells | 103 µM | 83.4 ± 23.4 µM | 54.7 ± 3.3 µM | 62.5 µM | 51.4 µM | 37.1 µM | 81.4 µM | IC50 [3, 15]: 64 µM; IC50 [7, 18]: 58 µM; IC50 ([8]; Homo sapiens, CCRF-CEM, Table 5A, CCRF-CEM/VM-1, mean, read-out: IC50, mean ± spread): 85.2 ± 4 µM; IC50 ([8]; Table 5A, CCRF-CEM/VM-1, read-out: IC50): 89 µM
C=CC(C)(C)C12CC3C(=O)NCC(=O)N3C1N(C=O)c1ccccc12 (stereo not shown) [5N-formyl-8-desMe-DKP] | – | – | – | – | 200 µM | – | – | – | 372 µM | – | – | –
C=CC(C)(C)C12CC3C(=O)NC(C)C(=O)N3C1N(C(=O)C(F)(F)F)c1ccccc12 (stereo not shown) [5N-F3 -Ac-DKP 14F(E), 5N-trifluoroacetyl diketopiperazine] | 5.77 fmole/10^3 cells | 23.34 fmole/10^3 cells | 28.75 fmole/10^3 cells | 33.34 fmole/10^3 cells | 32.8 µM | 32.2 ± 0.7 µM | – | – | 24.6 µM | – | 41 µM | IC50 [3, 20]: 32.8 µM; IC50 [3, 15]: 31.5 µM; IC50 [10, 21]: 24.8 µM; IC50 [8, 22]: 40.9 µM
C=CC(C)(C)C12CC3c4nc5ccccc5c(=O)n4CC(=O)N3C1Nc1ccccc12 (stereo not shown) [8-Desmethyl-Ardeemin] | – | – | – | – | – | – | – | – | – | – | – | IC50 [11]: 4.7 µM; (C)/(A) [11]: 0.49 X; (B)/(A) [1, 23]: 3.5 X; IC50 ([12]; read-out: IC50 (B)): 26.5 µM; IC50 [3, 20]: 14.3 µM; IC50 [10, 21]: 18.8 µM; IC50 [6, 24]: 9.58 ± 1.29 µM; IC50 [6, 25]: 10.9 µM; IC50 [6, 26]: 8.29 µM; IC50 [8, 22]: 18.1 µM
C=CC(C)(C)C12CC3C(=O)N(C(C)=O)C(C)C(=O)N3C1Nc1ccccc12 (stereo not shown) [Imide-Ac-DKP 14(A), imide acetate diketopiperazine] | 4.52 fmole/10^3 cells | 18.93 fmole/10^3 cells | 30.18 fmole/10^3 cells | 34.87 fmole/10^3 cells | 48.1 µM | 61 ± 13.1 µM | 38 ± 1.8 µM | 48.1 µM | 39.7 µM | 39.7 µM | 50 µM | IC50 [3, 15]: 47.9 µM and 87 µM; IC50 [7, 18]: 36.2 µM
C=CC(C)(C)C12CC3C(=O)N(C(=O)OC(C)(C)C)C(C)C(=O)N3C1Nc1ccccc12 (stereo not shown) [Imide-BOC-DKP 14(C), imide-BOC diketopiperazine] | 6.10 fmole/10^3 cells | 25.44 fmole/10^3 cells | 30.29 fmole/10^3 cells | 35.56 fmole/10^3 cells | – | 204 ± 116 µM | 92.9 ± 27.3 µM | 88.7 µM | 65.4 µM | 65.4 µM | 205 µM | IC50 [7, 18]: 120 µM
C=CC(C)(C)C12CC3C(=O)NC(C)C(=O)N3C1Nc1ccccc12 (stereo not shown) [Diketopiperazine 14(B), Diketopiperazine] | 3.33 fmole/10^3 cells | 10.81 fmole/10^3 cells | 28.51 fmole/10^3 cells | 35.84 fmole/10^3 cells | 143 µM | 132 ± 11.5 µM | 94.6 ± 40.8 µM | 148 µM | – | 147 µM | – | IC50 [3, 20]: 143 µM; IC50 ([3]; Table 5A, single determinations, listed as DKP 14(B)): 120 µM; IC50 [10, 21]: 135 µM; IC50 ([8]; Homo sapiens, CCRF-CEM): 178 µM; IC50 ([8]; Homo sapiens, CCRF-CEM, read-out: IC50 of reversing agent): 178 µM
C=CC(C)(C)C12CC3C(=O)NC(C)C(=O)N3C1N(C(C)=O)c1ccccc12 (stereo not shown) [5N-Ac-DKP 14(E), N-acetyldiketopiperazine] | 3.59 fmole/10^3 cells | 12.88 fmole/10^3 cells | 29.54 fmole/10^3 cells | 35.08 fmole/10^3 cells | – | 397 ± 171 µM | 344 ± 197 µM | 225 µM | – | 541 µM | 32.4 µM | –
C=CC(C)(C)C12CC3c4nc5ccccc5c(=O)n4C(C)C(=O)N3C1N(C(=O)C(F)(F)F)c1ccccc12 (stereo not shown) [5N F3 -Ac-Ard 3F, 5N-Tri-F Acetyl Ardeemin] | 7.28 fmole/10^3 cells | 32.68 fmole/10^3 cells | 28.44 fmole/10^3 cells | 34.01 fmole/10^3 cells | 37.5 µM | – | – | – | 17.2 µM | – | 52.6 µM | IC50 [3, 20]: 37.6 µM; IC50 [10, 21]: 17.2 µM
C=CC(C)(C)C12CC3C(=O)NCC(=O)N3C1Nc1ccccc12 (stereo not shown) [Desmethyl-DKP] | – | – | – | – | – | – | – | – | – | – | – | IC50 [11]: 199 µM; (C)/(A) [11]: 1.5 X; (B)/(A) [1]: 1.3 X; IC50 ([12]; read-out: IC50 (B)): 103 µM; IC50 [6, 24]: 131 ± 14.7 µM; IC50 [6, 25]: 116 µM; IC50 [6, 26]: 145 µM
COc1cc(NS(C)(=O)=O)ccc1Nc1c2ccccc2nc2ccccc12 [M-AMSA, reference compound] | – | – | – | – | – | – | – | – | – | – | – | IC50 ([1]; dc-3f/adii cells): 0.032 µM; IC50 [2]: 0.184 µM; IC50 ([7]; ccrf-cem/vbl100 cells): 0.656 µM; IC50 ([8]; ccrf-cem/vm-1 cells): 2.55 µM
Cc1c2oc3c(C)ccc(C(=O)N[C@@H]4C(=O)N[C@H](C(C)C)C(=O)N5CCC[C@H]5C(=O)N(C)CC(=O)N(C)[C@@H](C(C)C)C(=O)O[C@@H]4C)c3nc-2c(C(=O)N[C@@H]2C(=O)N[C@H](C(C)C)C(=O)N3CCC[C@H]3C(=O)N(C)CC(=O)N(C)[C@@H](C(C)C)C(=O)O[C@@H]2C)c(N)c1=O [Actinomycin D, reference compound] (I: T[dV]P[Sar][NMeV] / II: T[dV]P[Sar][NMeV]; ester I:1-I:C, II:1-II:C; linker I:N-II:N via Actinocin(9to1)) | – | – | – | – | – | – | – | – | – | – | – | (C)/(A), resistance in words [11]: Very Resistant; IC50 [11]: 1.23 µM; (C)/(A) [11]: 4738.5 X; (B)/(A), resistance in words [1]: Resistant; (B)/(A) [1, 23]: 349.6 X; IC50 ([12]; read-out: IC50 (B), DC-3F/ADII): 0.0909 µM; IC50 [6, 24]: 0.00026 ± 5e-05 µM; IC50 [6, 25]: 0.00021 µM; IC50 [6, 26]: 0.00031 µM
